Where two headings read alike, the source gives them in different places.
Legend:
[1] = system: human multiple myeloma cell line, OPM-2; assay: Cell viability assay (OPM-2 10 FBS), CellTiter-Glo; type: cell-based
In short: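 Steps: plate cells at 3000/well in 10% FBS growth medium, add serially diluted compound, incubate 16 h at 37 °C with 5% CO2, add detection reagent and read luminescence after 25 min. A 4-parameter logistic model gives IC50.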

[2] = biological target: recombinant human Mcl-1 (residues 171-327) / Bim interaction (Homo sapiens (Human), UniProt Q07820); assay: biochemical; type: binding; conditions: TR-FRET, Mcl-1(171-327) / biotin-Bim (51-76); read-out: Mcl-1 HTRF IC50
[3] = Homo sapiens, OPM-2, 16 h, read-out: OPM-2 10% FBS IC50 IP, OPM-2 cells, 10% FBS, 16 h, CellTiter-Glo
[4] = read-out: OPM-2 10% FBS IC50 IP, OPM-2 cells, 10% FBS, 16 h, CellTiter-Glo

Chain of recombinant human Mcl-1 (residues 171-327) / Bim interaction (Q07820 171-327): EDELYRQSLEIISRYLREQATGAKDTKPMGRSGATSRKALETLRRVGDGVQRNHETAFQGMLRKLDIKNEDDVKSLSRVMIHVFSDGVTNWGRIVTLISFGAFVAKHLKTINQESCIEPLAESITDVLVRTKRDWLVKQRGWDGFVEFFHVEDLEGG

| Compound | IC50 [1, 3] [nM] | IC50 [2] [nM] | IC50 [1, 4] [nM] |
| --- | --- | --- | --- |
| CO[C@]1(CCN2CCN(C)C(=O)C2)/C=C/C[C@H](C)[C@@H](C)S(=O)(=O)NC(=O)c2ccc3c(c2)N(C[C@@H]2CC[C@H]21)C[C@@]1(CCCc2cc(Cl)ccc21)CO3 [Example 100415, (1S,3′R,6′R,7′R,8′E,11′S,12′R)-6-chloro-7′-methoxy-11′,12′-dimethyl-7′-(2-(4-methyl-3-oxo-1-piperazinyl)ethyl)-3,4-dihydro-2H,15′H-spiro[naphthalene-1,22′-[20]oxa[13]thia[1,14]diazatetracyclo [14.7.2.0~3,6~.0~19,24~]pentacosa[8,16,18,24]tetraen]-15′-one 13′,13′-dioxide] | 2280 | 1.95 | – |
| CCOC(=O)C(F)(F)[C@]1(O)/C=C/C[C@H](C)[C@@H](C)S(=O)(=O)NC(=O)c2ccc3c(c2)N(C[C@@H]2CC[C@H]21)C[C@@]1(CCCc2cc(Cl)ccc21)CO3 [Example 100416, ethyl ((1S,3′R,6′R,7′S,8′E,11′S,12′R)-6-chloro-7′-hydroxy-11′,12′-dimethyl-13′,13′-dioxido-15′-oxo-3,4-dihydro-2H-spiro[naphthalene-1,22′-[20]oxa[13]thia[1,14]diazatetracyclo [14.7.2.0~3,6~.0~19,24~]pentacosa[8,16,18,24]tetraen]-7′-yl)(difluoro)acetate] | 86 | 0.092 | – |
| CO[C@@]1(CC(=O)N2CCN(C)C[C@H]2C)/C=C/C[C@H](C)[C@@H](C)S(=O)(=O)NC(=O)c2ccc3c(c2)N(C[C@@H]2CC[C@H]21)C[C@@]1(CCCc2cc(Cl)ccc21)CO3 [Example 100417, (1S,3′R,6′R,7′S,8′E,11′S,12′R)-6-chloro-7′-(2-((2R)-2,4-dimethyl-1-piperazinyl)-2-oxoethyl)-7′-methoxy-11′,12′-dimethyl-3,4-dihydro-2H,15′H-spiro[naphthalene-1,22′-[20]oxa[13]thia[1,14]diazatetracyclo [14.7.2.0~3,6~.0~19,24~]pentacosa[8,16,18,24]tetraen]-15′-one 13′,13′-dioxide] | 379 | 0.345 | – |
| CO[C@@]1(CCN2CCOCC2)/C=C/C[C@H](C)[C@@H](C)S(=O)(=O)NC(=O)c2ccc3c(c2)N(C[C@@H]2CC[C@H]21)C[C@@]1(CCCc2cc(Cl)ccc21)CO3 [Example 100419, (1S,3′R,6′R,7′S,8′E,11′S,12′R)-6-chloro-7′-methoxy-11′,12′-dimethyl-7′-(2-(4-morpholinyl)ethyl)-3,4-dihydro-2H,15′H-spiro[naphthalene-1,22′-[20]oxa[13]thia[1,14]diazatetracyclo [14.7.2.0~3,6~.0~19,24~]pentacosa[8,16,18,24]tetraen]-15′-one 13′,13′-dioxide] | 416 | 0.277 | – |
| C[C@@H]1[C@@H](C)C/C=C/[C@@](O)(C#CCN2CCCCC2)[C@@H]2CC[C@H]2CN2C[C@@]3(CCCc4cc(Cl)ccc43)COc3ccc(cc32)C(=O)NS1(=O)=O [Example 100421, (1S,3′R,6′R,7′S,8′E,11′S,12′R)-6-chloro-7′-hydroxy-11′,12′-dimethyl-7′-(3-(1-piperidinyl)-1-propyn-1-yl)-3,4-dihydro-2H,15′H-spiro[naphthalene-1,22′-[20]oxa[13]thia[1,14]diazatetracyclo [14.7.2.0~3,6~.0~19,24~]pentacosa[8,16,18,24]tetraen]-15′-one 13′,13′-dioxide] | – | 3.93 | 4930 |
| C[C@@H]1[C@@H](C)C/C=C/[C@@](O)(C#CCCO)[C@@H]2CC[C@H]2CN2C[C@@]3(CCCc4cc(Cl)ccc43)COc3ccc(cc32)C(=O)NS1(=O)=O [Example 100422, (1S,3′R,6′R,7′S,8′E,11′S,12′R)-6-chloro-7′-hydroxy-7′-(4-hydroxy-1-butyn-1-yl)-11′,12′-dimethyl-3,4-dihydro-2H,15′H-spiro[naphthalene-1,22′-[20]oxa[13]thia[1,14]diazatetracyclo [14.7.2.0~3,6~.0~19,24~]pentacosa[8,16,18,24]tetraen]-15′-one 13′,13′-dioxide] | 182 | 0.174 | – |
| COCCC#C[C@]1(OC)/C=C/C[C@H](C)[C@@H](C)S(=O)(=O)NC(=O)c2ccc3c(c2)N(C[C@@H]2CC[C@H]21)C[C@@]1(CCCc2cc(Cl)ccc21)CO3 [Example 100423, (1S,3′R,6′R,7′S,8′E,11′S,12′R)-6-chloro-7′-methoxy-7′-(4-methoxy-1-butyn-1-yl)-11′,12′-dimethyl-3,4-dihydro-2H,15′H-spiro[naphthalene-1,22′-[20]oxa[13]thia[1,14]diazatetracyclo [14.7.2.0~3,6~.0~19,24~]pentacosa[8,16,18,24]tetraen]-15′-one 13′,13′-dioxide] | 99 | 0.056 | – |
| C[C@@H]1[C@@H](C)C/C=C/[C@@](O)(C#CCN2CCCCC2)[C@@H]2CC[C@H]2CN2C[C@@]3(CCCc4cc(Cl)ccc43)COc3ccc(cc32)C(=O)NS1(=O)=O [Example 100424, (1S,3′R,6′R,7′S,8′E,11′S,12′R)-6-chloro-7′-hydroxy-11′,12′-dimethyl-7′-(3-(1-piperidinyl)-1-propyn-1-yl)-3,4-dihydro-2H,15′H-spiro[naphthalene-1,22′-[20]oxa[13]thia[1,14]diazatetracyclo [14.7.2.0~3,6~.0~19,24~]pentacosa[8,16,18,24]tetraen]-15′-one 13′,13′-dioxide] | – | 0.249 | 469 |
| CO[C@]1(CCN2CCN3CCOC[C@@H]3C2)/C=C/C[C@H](C)[C@@H](C)S(=O)(=O)NC(=O)c2ccc3c(c2)N(C[C@@H]2CC[C@H]21)C[C@@]1(CCCc2cc(Cl)ccc21)CO3 [Example 100425, (1S,3′R,6′R,7′R,8′E,11′S,12′R)-6-chloro-7′-(2-((9aS)-hexahydropyrazino[2,1-c][1,4]oxazin-8(1H)-yl)ethyl)-7′-methoxy-11′,12′-dimethyl-3,4-dihydro-2H,15′H-spiro[naphthalene-1,22′-[20]oxa[13]thia[1,14]diazatetracyclo [14.7.2.0~3,6~.0~19,24~]pentacosa[8,16,18,24]tetraen]-15′-one 13′,13′-dioxide] | 717 | 0.165 | – |
| CO[C@]1(C#CCCO)/C=C/C[C@H](C)[C@@H](C)S(=O)(=O)NC(=O)c2ccc3c(c2)N(C[C@@H]2CC[C@H]21)C[C@@]1(CCCc2cc(Cl)ccc21)CO3 [Example 100426, (1S,3′R,6′R,7′R,8′E,11′S,12′R)-6-chloro-7′-(4-hydroxy-1-butyn-1-yl)-7′-methoxy-11′,12′-dimethyl-3,4-dihydro-2H,15′H-spiro[naphthalene-1,22′-[20]oxa[13]thia[1,14]diazatetracyclo [14.7.2.0~3,6~.0~19,24~]pentacosa[8,16,18,24]tetraen]-15′-one 13′,13′-dioxide] | 110 | 0.197 | – |
| CO[C@@]1(C#CCCO)/C=C/C[C@H](C)[C@@H](C)S(=O)(=O)NC(=O)c2ccc3c(c2)N(C[C@@H]2CC[C@H]21)C[C@@]1(CCCc2cc(Cl)ccc21)CO3 [Example 100427, (1S,3′R,6′R,7′S,8′E,11′S,12′R)-6-chloro-7′-(4-hydroxy-1-butyn-1-yl)-7′-methoxy-11′,12′-dimethyl-3,4-dihydro-2H,15′H-spiro[naphthalene-1,22′-[20]oxa[13]thia[1,14]diazatetracyclo [14.7.2.0~3,6~.0~19,24~]pentacosa[8,16,18,24]tetraen]-15′-one 13′,13′-dioxide] | 342 | 0.209 | – |

From US10821115B2, “Compounds that inhibit Mcl-1 protein” (priority 2017, dated 2020)
